According to PubChem BioAssay AID2060496 (Molecular Pharmacology Branch, DTP, NCI, 2025):

Tested on: 276233-004-R-J1-PDC complex spheroid viability
Assay: Anticancer human tumor 276233-004-R-J1-PDC patient-derived colon adenocarcinoma cell line growth inhibition [GQUAD]
Conditions: for IC50: curve of first compound; for viability, T/C: stronger effect = lower value
How it was run: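 Multi-cell-type spheroids of tumor cells with HUVEC and mesenchymal stem cells, treated with drug combinations. Concentrations descend in half-log steps from near clinical Cmax, or from 10 microM where Cmax is unknown; viability read-out.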

[1] = second compound 0.0316 µM, first compound 0.0316 µM
[2] = second compound 0.0316 µM, first compound 0.316 µM
[3] = second compound 0.1 µM, first compound 0.0316 µM
[4] = second compound 0.1 µM, first compound 0.316 µM
[5] = second compound 0.316 µM, first compound 0.0316 µM
[6] = second compound 0.316 µM, first compound 0.316 µM
[7] = second compound 1 µM, first compound 0.0316 µM
[8] = second compound 1 µM, first compound 0.316 µM
[9] = second compound 3.16 µM, first compound 0.0316 µM
[10] = second compound 3.16 µM, first compound 0.316 µM
[11] = second compound 10 µM, first compound 0.0316 µM
[12] = second compound 10 µM, first compound 0.316 µM
[13] = second compound 0.0316 µM, first compound 0.1 µM
[14] = second compound 0.0316 µM, first compound 1 µM
[15] = second compound 0.0316 µM, first compound 3.16 µM
[16] = second compound 0.0316 µM, first compound 10 µM
[17] = second compound 0.1 µM, first compound 0.1 µM
[18] = second compound 0.1 µM, first compound 1 µM
[19] = second compound 0.1 µM, first compound 3.16 µM
[20] = second compound 0.1 µM, first compound 10 µM
[21] = second compound 0.316 µM, first compound 0.1 µM
[22] = second compound 0.316 µM, first compound 1 µM
[23] = second compound 0.316 µM, first compound 3.16 µM
[24] = second compound 0.316 µM, first compound 10 µM
[25] = second compound 1 µM, first compound 0.1 µM
[26] = second compound 1 µM, first compound 1 µM
[27] = second compound 1 µM, first compound 3.16 µM
[28] = second compound 1 µM, first compound 10 µM
[29] = second compound 3.16 µM, first compound 0.1 µM
[30] = second compound 3.16 µM, first compound 1 µM
[31] = second compound 3.16 µM, first compound 3.16 µM
[32] = second compound 3.16 µM, first compound 10 µM
[33] = second compound 10 µM, first compound 0.1 µM
[34] = second compound 10 µM, first compound 1 µM
[35] = second compound 10 µM, first compound 3.16 µM
[36] = second compound 10 µM, first compound 10 µM
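Also: spheroids exposed to drugs for seven days.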
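For viability, T/C in this document: 100% = DMSO vehicle control viability.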

Cc1[nH]c2ccccc2c1CCNCc1ccc(/C=C/C(=O)NO)cc1 + Cc1cnc(CNC(=O)c2c(=O)c3ccc(N4CCCN(C)CC4)nc3n3c2sc2ccccc23)cn1
IC50 (second compound 0.0316 µM): 211 nM
IC50 (second compound 0.1 µM): 144 nM
IC50 (second compound 0.316 µM): 127 nM
IC50 (second compound 1 µM): 62.4 nM
IC50 (second compound 3.16 µM): 46.9 nM
IC50 (second compound 10 µM): 40.5 nM
viability, T/C (second compound 0.0316 µM, first compound 0.000999 µM): 90.4%
viability, T/C (second compound 0.0316 µM, first compound 0.00316 µM): 93%
viability, T/C (second compound 0.0316 µM, first compound 0.00999 µM): 87.7%
viability, T/C [1]: 82.3%
viability, T/C (second compound 0.0316 µM, first compound 0.0999 µM): 75.7%
viability, T/C [2]: 36.6%
viability, T/C (second compound 0.1 µM, first compound 0.000999 µM): 80.1%
viability, T/C (second compound 0.1 µM, first compound 0.00316 µM): 74.1%
viability, T/C (second compound 0.1 µM, first compound 0.00999 µM): 92.7%
viability, T/C [3]: 101%
viability, T/C (second compound 0.1 µM, first compound 0.0999 µM): 57.8%
viability, T/C [4]: 33.2%
viability, T/C (second compound 0.316 µM, first compound 0.000999 µM): 88%
viability, T/C (second compound 0.316 µM, first compound 0.00316 µM): 99.1%
viability, T/C (second compound 0.316 µM, first compound 0.00999 µM): 102%
viability, T/C [5]: 74.3%
viability, T/C (second compound 0.316 µM, first compound 0.0999 µM): 57.9%
viability, T/C [6]: 29.6%
viability, T/C (second compound 1 µM, first compound 0.000999 µM): 71.5%
viability, T/C (second compound 1 µM, first compound 0.00316 µM): 92%
viability, T/C (second compound 1 µM, first compound 0.00999 µM): 88.1%
viability, T/C [7]: 70.9%
viability, T/C (second compound 1 µM, first compound 0.0999 µM): 35.2%
viability, T/C [8]: 19.1%
viability, T/C (second compound 3.16 µM, first compound 0.000999 µM): 71.6%
viability, T/C (second compound 3.16 µM, first compound 0.00316 µM): 85.8%
viability, T/C (second compound 3.16 µM, first compound 0.00999 µM): 68%
viability, T/C [9]: 62.3%
viability, T/C (second compound 3.16 µM, first compound 0.0999 µM): 29.2%
viability, T/C [10]: 9.8%
viability, T/C (second compound 10 µM, first compound 0.000999 µM): 70.9%
viability, T/C (second compound 10 µM, first compound 0.00316 µM): 60.8%
viability, T/C (second compound 10 µM, first compound 0.00999 µM): 73.2%
viability, T/C [11]: 54.7%
viability, T/C (second compound 10 µM, first compound 0.0999 µM): 26.4%
viability, T/C [12]: 4.45%

CC1COCCN1c1cc(C2(O)CC3CCC(C2)O3)c2cnn(-c3ccn[nH]3)c2n1 (stereo unspecified) + Cc1cnc(CNC(=O)c2c(=O)c3ccc(N4CCCN(C)CC4)nc3n3c2sc2ccccc23)cn1
IC50 (second compound 0.0316 µM): 3100 nM
IC50 (second compound 0.1 µM): 3560 nM
IC50 (second compound 0.316 µM): 1470 nM
IC50 (second compound 1 µM): 1020 nM
IC50 (second compound 3.16 µM): 642 nM
IC50 (second compound 10 µM): 271 nM
viability, T/C [1]: 81%
viability, T/C [13]: 61.9%
viability, T/C [2]: 79.2%
viability, T/C [14]: 50.7%
viability, T/C [15]: 52.1%
viability, T/C [16]: 40.3%
viability, T/C [3]: 79.7%
viability, T/C [17]: 80.7%
viability, T/C [4]: 60.6%
viability, T/C [18]: 63.5%
viability, T/C [19]: 56.3%
viability, T/C [20]: 35.8%
viability, T/C [5]: 71.1%
viability, T/C [21]: 85.3%
viability, T/C [6]: 62.6%
viability, T/C [22]: 50.6%
viability, T/C [23]: 48.7%
viability, T/C [24]: 32.9%
viability, T/C [7]: 68.8%
viability, T/C [25]: 75%
viability, T/C [8]: 50.4%
viability, T/C [26]: 50%
viability, T/C [27]: 44.6%
viability, T/C [28]: 24.9%
viability, T/C [9]: 55.7%
viability, T/C [29]: 59.7%
viability, T/C [10]: 56.4%
viability, T/C [30]: 44.8%
viability, T/C [31]: 35.9%
viability, T/C [32]: 24.6%
viability, T/C [11]: 63.2%
viability, T/C [33]: 60.1%
viability, T/C [12]: 46.9%
viability, T/C [34]: 41.7%
viability, T/C [35]: 35.6%
viability, T/C [36]: 20%

CCCS(=O)(=O)Nc1ccc(F)c(C(=O)c2c[nH]c3ncc(-c4ccc(Cl)cc4)cc23)c1F + Cc1cnc(CNC(=O)c2c(=O)c3ccc(N4CCCN(C)CC4)nc3n3c2sc2ccccc23)cn1
IC50 (second compound 0.0316 µM): > 10000 nM
IC50 (second compound 0.1 µM): > 10000 nM
IC50 (second compound 0.316 µM): > 10000 nM
IC50 (second compound 1 µM): > 10000 nM
IC50 (second compound 3.16 µM): > 10000 nM
IC50 (second compound 10 µM): > 10000 nM
viability, T/C [1]: 82.2%
viability, T/C [13]: 93.7%
viability, T/C [2]: 117%
viability, T/C [14]: 105%
viability, T/C [15]: 112%
viability, T/C [16]: 75.7%
viability, T/C [3]: 92%
viability, T/C [17]: 87.3%
viability, T/C [4]: 96.4%
viability, T/C [18]: 105%
viability, T/C [19]: 99.5%
viability, T/C [20]: 82.9%
viability, T/C [5]: 80.8%
viability, T/C [21]: 99.1%
viability, T/C [6]: 101%
viability, T/C [22]: 100%
viability, T/C [23]: 101%
viability, T/C [24]: 79.9%
viability, T/C [7]: 89.3%
viability, T/C [25]: 81.8%
viability, T/C [8]: 97.7%
viability, T/C [26]: 79.2%
viability, T/C [27]: 95%
viability, T/C [28]: 74.3%
viability, T/C [9]: 94.2%
viability, T/C [29]: 76.4%
viability, T/C [10]: 81.9%
viability, T/C [30]: 80.2%
viability, T/C [31]: 71.4%
viability, T/C [32]: 62.2%
viability, T/C [11]: 67.4%
viability, T/C [33]: 70%
viability, T/C [12]: 64.3%
viability, T/C [34]: 69.7%
viability, T/C [35]: 77.1%
viability, T/C [36]: 50.5%
